In patent publication US11173151B2, “Substituted triazole derivatives and uses thereof” (BAYER AKTIENGESELLSCHAFT, priority 2017, dated 2021):
pIC50: −log10 of the molar value. Each block holds one molecule with its values, some of them ahead of it.

Key:
human V2 receptor = target: T1, human V2 receptor (Homo sapiens, UniProt P30518); assay: Cellular in vitro assay for determining vasopressin receptor activity, V2 receptor cell line (CHO, CRE-luciferase); assay type: cell-based; conditions: CHO cell line transfected with human V2 receptor; [Arg8]-vasopressin at EC50 concentration; read-out: IC50 hV2
T1 construct: expressed in transfected cells; host or cells: CHO K1 (ATCC) expressing firefly luciferase under a CRE-responsive promoter

human V1a receptor = target: T2, human V1a receptor (Homo sapiens, UniProt P37288); assay: Cellular in vitro assay for determining vasopressin receptor activity, V1a receptor cell line (CHO, aequorin luminescence); assay type: cell-based; conditions: for pIC50: CHO cell line transfected with human V1a receptor, [Arg]-vasopressin at EC50 concentration, read-out: IC50 hV1a; for ratio IC50 hV2/hV1a: selectivity ratio IC50 hV2 / IC50 hV1a
T2 construct: expressed in transfected cells; host or cells: CHO K1 (ATCC), also stably transfected with a modified aequorin
How it was run: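 CHO K1/aequorin cells, coelenterazine 5 μg/ml o/n; cpd 10 min; [Arg]-vasopressin at EC50; luminescence read immediately; IC50.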

T2 sequence (P37288 whole entry): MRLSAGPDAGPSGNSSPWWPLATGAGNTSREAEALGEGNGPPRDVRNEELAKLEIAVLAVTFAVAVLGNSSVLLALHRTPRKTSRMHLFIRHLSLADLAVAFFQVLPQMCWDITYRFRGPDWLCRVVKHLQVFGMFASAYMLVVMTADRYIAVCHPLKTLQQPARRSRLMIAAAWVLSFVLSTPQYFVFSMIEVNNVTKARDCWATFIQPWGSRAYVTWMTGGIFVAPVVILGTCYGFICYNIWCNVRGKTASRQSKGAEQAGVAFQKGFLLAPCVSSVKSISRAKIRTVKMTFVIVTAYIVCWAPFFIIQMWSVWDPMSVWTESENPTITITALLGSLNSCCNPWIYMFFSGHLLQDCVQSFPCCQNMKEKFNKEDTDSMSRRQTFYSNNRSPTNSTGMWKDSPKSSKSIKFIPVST
T1 sequence (P30518 whole entry): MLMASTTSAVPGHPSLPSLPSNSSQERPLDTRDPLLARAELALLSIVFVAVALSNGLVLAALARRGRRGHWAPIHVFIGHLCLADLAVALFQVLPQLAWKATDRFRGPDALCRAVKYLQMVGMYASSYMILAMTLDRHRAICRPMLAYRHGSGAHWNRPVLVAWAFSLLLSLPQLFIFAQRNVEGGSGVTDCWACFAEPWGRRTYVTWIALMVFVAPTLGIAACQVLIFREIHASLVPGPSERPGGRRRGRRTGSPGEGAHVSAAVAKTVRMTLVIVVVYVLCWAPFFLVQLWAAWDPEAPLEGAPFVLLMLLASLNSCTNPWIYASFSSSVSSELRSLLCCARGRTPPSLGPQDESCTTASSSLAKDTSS

Compound: CC1(C)COCCN1C(=O)c1ncccc1-n1cnc(Cn2nc(-c3ccc(Cl)cc3)n(C[C@H](O)C(F)(F)F)c2=O)n1 [Example 474, 5-(4-Chlorophenyl)-2-[(1-{2-[(3,3-dimethylmorpholin-4-yl)carbonyl]pyridin-3-yl}-1H-1,2,4-triazol-3-yl)methyl]-4-[(2S)-3,3,3-trifluoro-2-hydroxypropyl]-2,4-dihydro-3H-1,2,4-triazol-3-one]
pIC50 (human V2 receptor): 4.65
pIC50 (human V1a receptor): 7.62
ratio IC50 hV2/hV1a (human V1a receptor): 937.5

Compound: CC1(C)COCCN1C(=O)c1ncccc1-n1cnc(Cn2nc(-c3ccc(Cl)cc3)n(C[C@@H](O)C(F)(F)F)c2=O)n1 [Example 475, 5-(4-Chlorophenyl)-2-[(1-{2-[(3,3-dimethylmorpholin-4-yl)carbonyl]pyridin-3-yl}-1H-1,2,4-triazol-3-yl)methyl]-4-[(2R)-3,3,3-trifluoro-2-hydroxypropyl]-2,4-dihydro-3H-1,2,4-triazol-3-one]
pIC50 (human V2 receptor): 4.18
pIC50 (human V1a receptor): 7.05
ratio IC50 hV2/hV1a (human V1a receptor): 733.3

Compound: O=C(c1ncccc1-n1cnc(Cn2nc(-c3ccc(Cl)cc3)n(C[C@@H](O)C(F)(F)F)c2=O)n1)N1CCC[C@H]1C(F)(F)F [Example 477, 5-(4-Chlorophenyl)-4-[(2R)-3,3,3-trifluoro-2-hydroxypropyl]-2-{[1-(2-{[(2S)-2-(trifluoromethyl)pyrrolidin-1-yl]carbonyl}pyridin-3-yl)-1H-1,2,4-triazol-3-yl]methyl}-2,4-dihydro-3H-1,2,4-triazol-3-one]
pIC50 (human V2 receptor): 4.96
pIC50 (human V1a receptor): 6.34
ratio IC50 hV2/hV1a (human V1a receptor): 23.9

Compound: O=C(c1ncccc1-n1cnc(Cn2nc(-c3ccc(Cl)cc3)n(C[C@@H](O)C(F)(F)F)c2=O)n1)N1CCS(=O)(=O)CC1 [Example 479, 5-(4-Chlorophenyl)-2-[(1-{2-[(1,1-dioxidothiomorpholin-4-yl)carbonyl]pyridin-3-yl}-1H-1,2,4-triazol-3-yl)methyl]-4-[(2R)-3,3,3-trifluoro-2-hydroxypropyl]-2,4-dihydro-3H-1,2,4-triazol-3-one]
pIC50 (human V2 receptor): 4.49
pIC50 (human V1a receptor): 5.85
ratio IC50 hV2/hV1a (human V1a receptor): 22.9

Compound: CN(CC1CC1)C(=O)c1ncccc1-n1cnc(Cn2nc(-c3ccc(Cl)cc3)n(C[C@@H](O)C(F)(F)F)c2=O)n1 [Example 482, 3-[3-({3-(4-Chlorophenyl)-5-oxo-4-[(2R)-3,3,3-trifluoro-2-hydroxypropyl]-4,5-dihydro-1H-1,2,4-triazol-1-yl}methyl)-1H-1,2,4-triazol-1-yl]-N-(cyclopropylmethyl)-N-methylpyridine-2-carboxamide]
pIC50 (human V2 receptor): 4.49
pIC50 (human V1a receptor): 7.00
ratio IC50 hV2/hV1a (human V1a receptor): 323.2

Compound: CC1(NC(=O)c2ncccc2-n2cnc(Cn3nc(-c4ccc(Cl)cc4)n(C[C@@H](O)C(F)(F)F)c3=O)n2)CC1 [Example 483, 3-[3-({3-(4-Chlorophenyl)-5-oxo-4-[(2R)-3,3,3-trifluoro-2-hydroxypropyl]-4,5-dihydro-1H-1,2,4-triazol-1-yl}methyl)-1H-1,2,4-triazol-1-yl]-N-(1-methylcyclopropyl)pyridine-2-carboxamide]
pIC50 (human V2 receptor): 5.40
pIC50 (human V1a receptor): 7.43
ratio IC50 hV2/hV1a (human V1a receptor): 106.8

Compound: NC(=O)[C@H]1CC(F)(F)CN1C(=O)c1ncccc1-n1cnc(Cn2nc(-c3ccc(Cl)cc3)n(C[C@@H](O)C(F)(F)F)c2=O)n1 [Example 486, 1-({3-[3-({3-(4-Chlorophenyl)-5-oxo-4-[(2R)-3,3,3-trifluoro-2-hydroxypropyl]-4,5-dihydro-1H-1,2,4-triazol-1-yl}methyl)-1H-1,2,4-triazol-1-yl]pyridin-2-yl}carbonyl)-4,4-difluoro-D-prolinamide]
pIC50 (human V2 receptor): 4.49
pIC50 (human V1a receptor): 6.96
ratio IC50 hV2/hV1a (human V1a receptor): 290.9

Compound: O=C(NC1CC1)c1ccncc1-n1cnc(Cn2nc(-c3ccc(Cl)cc3)n(C[C@H](O)C(F)(F)F)c2=O)n1 [Example 488, 3-[3-({3-(4-chlorophenyl)-5-oxo-4-[(2S)-3,3,3-trifluoro-2-hydroxypropyl]-4,5-dihydro-1H-1,2,4-triazol-1-yl}methyl)-1H-1,2,4-triazol-1-yl]-N-cyclopropylpyridine-4-carboxamide]
pIC50 (human V2 receptor): 5.70
pIC50 (human V1a receptor): 7.54
ratio IC50 hV2/hV1a (human V1a receptor): 69.0

Compound: O=C(N[C@@H]1C[C@@H]1F)c1ccncc1-n1cnc(Cn2nc(-c3ccc(Cl)cc3)n(C[C@H](O)C(F)(F)F)c2=O)n1 [Example 490, 3-[3-({3-(4-Chlorophenyl)-5-oxo-4-[(2S)-3,3,3-trifluoro-2-hydroxypropyl]-4,5-dihydro-1H-1,2,4-triazol-1-yl}methyl)-1H-1,2,4-triazol-1-yl]-N-[(1R,2S)-2-fluorocyclopropyl]pyridine-4-carboxamide]
pIC50 (human V2 receptor): 6.42
pIC50 (human V1a receptor): 7.80
ratio IC50 hV2/hV1a (human V1a receptor): 23.8

Compound: CC1(NC(=O)c2ccncc2-n2cnc(Cn3nc(-c4ccc(Cl)cc4)n(C[C@H](O)C(F)(F)F)c3=O)n2)CC1 [Example 492, 3-[3-({3-(4-Chlorophenyl)-5-oxo-4-[(2S)-3,3,3-trifluoro-2-hydroxypropyl]-4,5-dihydro-1H-1,2,4-triazol-1-yl}methyl)-1H-1,2,4-triazol-1-yl]-N-(1-methylcyclopropyl)pyridine-4-carboxamide]
pIC50 (human V2 receptor): 6.36
pIC50 (human V1a receptor): 8.74
ratio IC50 hV2/hV1a (human V1a receptor): 244.4

Next, values leading:

pIC50 (human V2 receptor): 5.11
pIC50 (human V1a receptor): 6.54
ratio IC50 hV2/hV1a (human V1a receptor): 26.9
Compound: O=C(c1ncccc1-n1cnc(Cn2nc(-c3ccc(Cl)cc3)n(C[C@@H](O)C(F)(F)F)c2=O)n1)N1CCC[C@@H]1C(F)(F)F [Example 478, 5-(4-Chlorophenyl)-4-[(2R)-3,3,3-trifluoro-2-hydroxypropyl]-2-{[1-(2-{[(2R)-2-(trifluoromethyl)pyrrolidin-1-yl]carbonyl}pyridin-3-yl)-1H-1,2,4-triazol-3-yl]methyl}-2,4-dihydro-3H-1,2,4-triazol-3-one]

pIC50 (human V2 receptor): 5.77
pIC50 (human V1a receptor): 7.30
ratio IC50 hV2/hV1a (human V1a receptor): 34.0
Compound: O=C(NCC(F)(F)F)c1ccncc1-n1cnc(Cn2nc(-c3ccc(Cl)cc3)n(C[C@H](O)C(F)(F)F)c2=O)n1 [Example 489, 3-[3-({3-(4-chlorophenyl)-5-oxo-4-[(2S)-3,3,3-trifluoro-2-hydroxypropyl]-4,5-dihydro-1H-1,2,4-triazol-1-yl}methyl)-1H-1,2,4-triazol-1-yl]-N-(2,2,2-trifluoroethyl)pyridine-4-carboxamide]

pIC50 (human V2 receptor): 5.89
pIC50 (human V1a receptor): 7.68
ratio IC50 hV2/hV1a (human V1a receptor): 61.9
Compound: O=C(NCCC(F)(F)F)c1ccncc1-n1cnc(Cn2nc(-c3ccc(Cl)cc3)n(C[C@H](O)C(F)(F)F)c2=O)n1 [Example 491, 3-[3-({3-(4-Chlorophenyl)-5-oxo-4-[(2S)-3,3,3-trifluoro-2-hydroxypropyl]-4,5-dihydro-1H-1,2,4-triazol-1-yl}methyl)-1H-1,2,4-triazol-1-yl]-N-(3,3,3-trifluoropropyl)pyridine-4-carboxamide]

pIC50 (human V2 receptor): 6.89
pIC50 (human V1a receptor): 7.61
ratio IC50 hV2/hV1a (human V1a receptor): 5.3
Compound: O=C(NCC(F)(F)F)c1cccnc1-n1cnc(Cn2nc(-c3ccc(Cl)cc3)n(C[C@H](O)C(F)(F)F)c2=O)n1 [Example 494, 2-[3-({3-(4-chlorophenyl)-5-oxo-4-[(2S)-3,3,3-trifluoro-2-hydroxypropyl]-4,5-dihydro-1H-1,2,4-triazol-1-yl}methyl)-1H-1,2,4-triazol-1-yl]-N-(2,2,2-trifluoroethyl)pyridine-3-carboxamide]

pIC50 (human V2 receptor): 6.28
pIC50 (human V1a receptor): 7.70
ratio IC50 hV2/hV1a (human V1a receptor): 26.0
Compound: CNC(=O)c1cccnc1-n1cnc(Cn2nc(-c3ccc(Cl)cc3)n(C[C@H](O)C(F)(F)F)c2=O)n1 [Example 495, 2-[3-({3-(4-chlorophenyl)-5-oxo-4-[(2S)-3,3,3-trifluoro-2-hydroxypropyl]-4,5-dihydro-1H-1,2,4-triazol-1-yl}methyl)-1H-1,2,4-triazol-1-yl]-N-methylpyridine-3-carboxamide]

pIC50 (human V2 receptor): 6.77
pIC50 (human V1a receptor): 8.14
ratio IC50 hV2/hV1a (human V1a receptor): 23.6
Compound: O=C(NC1CC1)c1cccnc1-n1cnc(Cn2nc(-c3ccc(Cl)cc3)n(C[C@H](O)C(F)(F)F)c2=O)n1 [Example 496, 2-[3-({3-(4-chlorophenyl)-5-oxo-4-[(2S)-3,3,3-trifluoro-2-hydroxypropyl]-4,5-dihydro-1H-1,2,4-triazol-1-yl}methyl)-1H-1,2,4-triazol-1-yl]-N-cyclopropylpyridine-3-carboxamide]

pIC50 (human V2 receptor): 6.31
pIC50 (human V1a receptor): 7.58
ratio IC50 hV2/hV1a (human V1a receptor): 18.5
Compound: O=C(NCCC(F)(F)F)c1cccnc1-n1cnc(Cn2nc(-c3ccc(Cl)cc3)n(C[C@H](O)C(F)(F)F)c2=O)n1 [Example 497, 2-[3-({3-(4-chlorophenyl)-5-oxo-4-[(2S)-3,3,3-trifluoro-2-hydroxypropyl]-4,5-dihydro-1H-1,2,4-triazol-1-yl}methyl)-1H-1,2,4-triazol-1-yl]-N-(3,3,3-trifluoropropyl)pyridine-3-carboxamide]

pIC50 (human V2 receptor): 6.33
pIC50 (human V1a receptor): 7.98
ratio IC50 hV2/hV1a (human V1a receptor): 44.8
Compound: O=C(NC1CC(F)(F)C1)c1cccnc1-n1cnc(Cn2nc(-c3ccc(Cl)cc3)n(C[C@H](O)C(F)(F)F)c2=O)n1 [Example 498, 2-[3-({3-(4-Chlorophenyl)-5-oxo-4-[(2S)-3,3,3-trifluoro-2-hydroxypropyl]-4,5-dihydro-1H-1,2,4-triazol-1-yl}methyl)-1H-1,2,4-triazol-1-yl]-N-(3,3-difluorocyclobutyl)pyridine-3-carboxamide]

pIC50 (human V2 receptor): 6.30
pIC50 (human V1a receptor): 7.82
ratio IC50 hV2/hV1a (human V1a receptor): 33.7
Compound: O=C(NCC1CC1)c1cccnc1-n1cnc(Cn2nc(-c3ccc(Cl)cc3)n(C[C@H](O)C(F)(F)F)c2=O)n1 [Example 499, 2-[3-({3-(4-Chlorophenyl)-5-oxo-4-[(2S)-3,3,3-trifluoro-2-hydroxypropyl]-4,5-dihydro-1H-1,2,4-triazol-1-yl}methyl)-1H-1,2,4-triazol-1-yl]-N-(cyclopropylmethyl)pyridine-3-carboxamide]
